From PMC4854315, “Discovery of a novel allosteric inhibitor-binding site in ERK5: comparison with the canonical kinase hinge ATP-binding site” (Acta Crystallographica. Section D, Structural Biology, 2016) come the findings set out here.

One may read the inhibition as the relative decrease from the control value, in per cent.

Assay in all cases: Z'-LYTE kinase panel
Holding throughout (assay type): biochemical

One assay addresses T1, CDK1/cyclin B (Homo sapiens, UniProt P06493).
T1 construct: purchased ThermoFisher (SelectScreen, Z'-LYTE)
An outline of the steps: (§1)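 Activity is reported as percent inhibition at one concentration, 10 µM, determined by the standard Z′-LYTE kinase assay across 225 panel kinases.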

For the next assay, the target named is T2, AXL (Homo sapiens, UniProt P30530).
T2 construct: purchased ThermoFisher (SelectScreen, Z'-LYTE)
T2 sequence (P30530 26-894): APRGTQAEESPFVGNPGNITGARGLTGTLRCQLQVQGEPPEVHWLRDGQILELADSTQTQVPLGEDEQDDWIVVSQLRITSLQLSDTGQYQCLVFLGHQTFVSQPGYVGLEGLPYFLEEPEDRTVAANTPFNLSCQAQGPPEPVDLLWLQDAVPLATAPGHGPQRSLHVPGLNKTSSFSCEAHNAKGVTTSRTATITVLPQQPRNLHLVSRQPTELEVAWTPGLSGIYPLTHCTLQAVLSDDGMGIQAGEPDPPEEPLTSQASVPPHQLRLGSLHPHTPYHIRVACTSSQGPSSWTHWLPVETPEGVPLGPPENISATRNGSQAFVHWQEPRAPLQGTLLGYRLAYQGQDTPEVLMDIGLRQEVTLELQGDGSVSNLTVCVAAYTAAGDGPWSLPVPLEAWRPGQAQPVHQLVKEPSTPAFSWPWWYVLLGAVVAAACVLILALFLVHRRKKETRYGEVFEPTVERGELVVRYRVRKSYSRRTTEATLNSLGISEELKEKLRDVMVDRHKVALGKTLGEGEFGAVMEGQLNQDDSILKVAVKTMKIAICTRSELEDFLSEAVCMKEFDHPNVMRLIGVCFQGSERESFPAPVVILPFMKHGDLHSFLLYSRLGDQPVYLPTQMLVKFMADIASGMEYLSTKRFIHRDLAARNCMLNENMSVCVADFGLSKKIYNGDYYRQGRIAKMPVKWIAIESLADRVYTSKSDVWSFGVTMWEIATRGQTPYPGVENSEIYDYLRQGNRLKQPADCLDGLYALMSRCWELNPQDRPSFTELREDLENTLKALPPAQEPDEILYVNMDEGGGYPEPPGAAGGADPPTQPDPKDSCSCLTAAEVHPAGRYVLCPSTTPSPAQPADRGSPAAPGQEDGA
The essentials:
as §1

In the next assay the target is T3, LTK (TYK1) (Homo sapiens, UniProt P29376).
T3 construct: purchased ThermoFisher (SelectScreen, Z'-LYTE)
T3 sequence (P29376 17-864): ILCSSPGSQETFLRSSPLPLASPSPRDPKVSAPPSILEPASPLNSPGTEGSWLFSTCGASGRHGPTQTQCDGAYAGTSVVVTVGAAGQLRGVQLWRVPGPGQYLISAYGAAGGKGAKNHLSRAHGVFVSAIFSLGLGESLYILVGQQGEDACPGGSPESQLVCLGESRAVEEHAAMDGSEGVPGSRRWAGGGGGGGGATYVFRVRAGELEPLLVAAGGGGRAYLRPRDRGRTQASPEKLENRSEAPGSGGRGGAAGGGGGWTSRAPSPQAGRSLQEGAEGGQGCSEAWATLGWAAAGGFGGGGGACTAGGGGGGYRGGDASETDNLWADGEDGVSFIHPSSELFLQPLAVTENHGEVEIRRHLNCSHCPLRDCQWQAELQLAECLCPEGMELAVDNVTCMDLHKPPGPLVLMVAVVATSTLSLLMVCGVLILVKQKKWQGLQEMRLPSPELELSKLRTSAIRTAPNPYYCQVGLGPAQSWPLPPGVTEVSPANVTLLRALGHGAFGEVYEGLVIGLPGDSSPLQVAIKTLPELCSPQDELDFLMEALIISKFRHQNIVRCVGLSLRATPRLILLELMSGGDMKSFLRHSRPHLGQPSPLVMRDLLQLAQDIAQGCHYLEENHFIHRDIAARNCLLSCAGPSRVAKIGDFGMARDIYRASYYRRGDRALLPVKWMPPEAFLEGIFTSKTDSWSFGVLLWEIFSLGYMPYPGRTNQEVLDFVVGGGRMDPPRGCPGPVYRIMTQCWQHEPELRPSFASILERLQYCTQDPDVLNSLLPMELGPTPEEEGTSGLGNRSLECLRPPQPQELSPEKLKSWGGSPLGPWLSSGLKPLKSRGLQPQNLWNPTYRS
An outline of the steps:
as §1

The target of another assay is T4, CLK1 (Homo sapiens, UniProt P49759).
T4 construct: purchased ThermoFisher (SelectScreen, Z'-LYTE)
T4 sequence (P49759 whole entry): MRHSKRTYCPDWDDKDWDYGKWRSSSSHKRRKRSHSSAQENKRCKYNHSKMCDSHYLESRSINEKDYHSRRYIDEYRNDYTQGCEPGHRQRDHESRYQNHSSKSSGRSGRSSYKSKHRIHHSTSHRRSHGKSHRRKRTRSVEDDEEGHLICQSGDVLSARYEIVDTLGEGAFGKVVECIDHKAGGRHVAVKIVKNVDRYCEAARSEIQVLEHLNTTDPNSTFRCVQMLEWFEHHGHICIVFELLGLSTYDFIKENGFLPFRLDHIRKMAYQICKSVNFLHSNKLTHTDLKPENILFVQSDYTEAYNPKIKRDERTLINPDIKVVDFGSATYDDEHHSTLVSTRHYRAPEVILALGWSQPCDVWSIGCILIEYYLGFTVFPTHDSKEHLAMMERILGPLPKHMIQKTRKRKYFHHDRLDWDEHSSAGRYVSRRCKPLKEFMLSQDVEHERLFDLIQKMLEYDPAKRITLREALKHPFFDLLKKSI
The essentials: as §1

Another assay deals with T5, NEK4 (Homo sapiens, UniProt P51957).
T5 construct: purchased ThermoFisher (SelectScreen, Z'-LYTE)
T5 sequence (P51957 whole entry): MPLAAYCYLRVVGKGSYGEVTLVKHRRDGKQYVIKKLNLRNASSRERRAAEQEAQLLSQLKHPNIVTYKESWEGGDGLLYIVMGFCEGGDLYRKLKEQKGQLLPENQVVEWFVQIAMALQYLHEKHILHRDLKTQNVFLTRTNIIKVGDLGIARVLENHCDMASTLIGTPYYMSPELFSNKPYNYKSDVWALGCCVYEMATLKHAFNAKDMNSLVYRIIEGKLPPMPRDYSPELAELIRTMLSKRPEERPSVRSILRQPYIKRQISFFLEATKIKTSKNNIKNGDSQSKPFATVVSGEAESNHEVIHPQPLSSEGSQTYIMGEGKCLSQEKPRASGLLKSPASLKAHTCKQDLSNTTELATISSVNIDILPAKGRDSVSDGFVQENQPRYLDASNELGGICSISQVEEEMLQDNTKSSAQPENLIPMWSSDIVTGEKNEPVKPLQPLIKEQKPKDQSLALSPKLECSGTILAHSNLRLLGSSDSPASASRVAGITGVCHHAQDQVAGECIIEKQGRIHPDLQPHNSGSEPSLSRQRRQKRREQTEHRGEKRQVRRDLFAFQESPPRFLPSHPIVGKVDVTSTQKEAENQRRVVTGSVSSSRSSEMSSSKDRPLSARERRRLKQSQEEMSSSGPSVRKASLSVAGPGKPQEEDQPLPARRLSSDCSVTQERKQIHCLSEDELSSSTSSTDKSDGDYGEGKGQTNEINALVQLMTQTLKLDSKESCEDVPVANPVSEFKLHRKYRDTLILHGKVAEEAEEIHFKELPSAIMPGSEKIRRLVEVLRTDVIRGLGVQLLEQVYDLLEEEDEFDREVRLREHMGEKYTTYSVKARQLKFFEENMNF
The essentials:
as §1

A further assay addresses T6, IKBKB (IKK beta) (Homo sapiens, UniProt O14920).
T6 construct: purchased ThermoFisher (SelectScreen, Z'-LYTE)
T6 sequence (O14920 1-756): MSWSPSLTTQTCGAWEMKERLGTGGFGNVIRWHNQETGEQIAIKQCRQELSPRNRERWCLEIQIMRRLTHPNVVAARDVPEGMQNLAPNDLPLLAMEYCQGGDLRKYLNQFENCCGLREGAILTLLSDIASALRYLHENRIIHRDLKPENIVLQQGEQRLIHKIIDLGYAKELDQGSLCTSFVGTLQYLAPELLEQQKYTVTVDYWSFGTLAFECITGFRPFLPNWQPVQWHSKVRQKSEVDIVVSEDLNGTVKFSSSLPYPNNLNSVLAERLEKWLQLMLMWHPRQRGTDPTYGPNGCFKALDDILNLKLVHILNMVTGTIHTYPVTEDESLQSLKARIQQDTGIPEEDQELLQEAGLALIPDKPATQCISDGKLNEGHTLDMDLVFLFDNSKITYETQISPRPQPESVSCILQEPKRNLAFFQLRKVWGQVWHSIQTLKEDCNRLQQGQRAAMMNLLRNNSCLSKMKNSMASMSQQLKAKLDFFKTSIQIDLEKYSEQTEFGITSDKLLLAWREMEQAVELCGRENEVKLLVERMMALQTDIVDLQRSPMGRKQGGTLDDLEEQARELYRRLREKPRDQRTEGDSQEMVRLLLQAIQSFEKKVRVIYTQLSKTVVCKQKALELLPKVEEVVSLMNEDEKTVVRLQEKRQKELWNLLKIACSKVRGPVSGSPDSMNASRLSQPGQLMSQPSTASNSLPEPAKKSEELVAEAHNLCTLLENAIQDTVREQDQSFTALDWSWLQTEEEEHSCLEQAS
An outline of the steps: as §1

In the next assay the target is T7, MAPK11 (p38 beta) (Homo sapiens, UniProt Q15759).
T7 construct: purchased ThermoFisher (SelectScreen, Z'-LYTE)
T7 sequence (Q15759 whole entry): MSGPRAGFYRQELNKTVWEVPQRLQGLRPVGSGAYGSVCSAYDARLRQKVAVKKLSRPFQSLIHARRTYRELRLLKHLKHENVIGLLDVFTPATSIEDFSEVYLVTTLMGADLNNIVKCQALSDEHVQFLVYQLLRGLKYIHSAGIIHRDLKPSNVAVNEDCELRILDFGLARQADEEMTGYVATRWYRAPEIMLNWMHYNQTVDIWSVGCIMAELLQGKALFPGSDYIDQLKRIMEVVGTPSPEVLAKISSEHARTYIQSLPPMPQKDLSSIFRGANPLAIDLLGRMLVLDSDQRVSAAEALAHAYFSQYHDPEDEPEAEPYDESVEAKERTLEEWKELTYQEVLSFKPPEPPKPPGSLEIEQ
The essentials: as §1

In the next assay the target is T8, PRKD2 (PKD2) (Homo sapiens, UniProt Q9BZL6).
T8 construct: purchased ThermoFisher (SelectScreen, Z'-LYTE)
T8 sequence (Q9BZL6 1-878): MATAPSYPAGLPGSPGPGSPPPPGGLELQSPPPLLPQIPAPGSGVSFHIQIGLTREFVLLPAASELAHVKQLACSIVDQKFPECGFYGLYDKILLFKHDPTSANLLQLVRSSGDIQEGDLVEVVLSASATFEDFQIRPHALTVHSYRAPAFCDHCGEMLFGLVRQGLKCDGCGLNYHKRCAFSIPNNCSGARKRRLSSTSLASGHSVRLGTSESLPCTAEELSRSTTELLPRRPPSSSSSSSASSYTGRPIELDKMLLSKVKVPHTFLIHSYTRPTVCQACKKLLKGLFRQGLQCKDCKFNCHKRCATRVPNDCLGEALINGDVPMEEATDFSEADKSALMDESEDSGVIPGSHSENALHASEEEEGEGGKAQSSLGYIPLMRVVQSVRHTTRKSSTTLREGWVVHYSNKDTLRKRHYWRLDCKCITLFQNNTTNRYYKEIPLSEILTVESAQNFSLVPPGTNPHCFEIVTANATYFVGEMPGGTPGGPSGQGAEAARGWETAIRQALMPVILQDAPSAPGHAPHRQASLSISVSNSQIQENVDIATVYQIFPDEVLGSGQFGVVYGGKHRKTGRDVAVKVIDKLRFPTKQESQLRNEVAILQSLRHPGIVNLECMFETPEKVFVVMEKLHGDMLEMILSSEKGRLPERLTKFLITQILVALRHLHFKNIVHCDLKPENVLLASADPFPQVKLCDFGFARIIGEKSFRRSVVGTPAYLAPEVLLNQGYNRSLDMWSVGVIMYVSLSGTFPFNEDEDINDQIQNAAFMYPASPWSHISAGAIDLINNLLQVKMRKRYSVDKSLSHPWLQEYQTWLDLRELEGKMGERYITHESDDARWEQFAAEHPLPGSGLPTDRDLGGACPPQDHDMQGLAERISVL
An outline of the steps: as §1

For the next assay, the target named is T9, PAK4 (Homo sapiens, UniProt O96013).
T9 construct: purchased ThermoFisher (SelectScreen, Z'-LYTE)
T9 sequence (O96013 whole entry): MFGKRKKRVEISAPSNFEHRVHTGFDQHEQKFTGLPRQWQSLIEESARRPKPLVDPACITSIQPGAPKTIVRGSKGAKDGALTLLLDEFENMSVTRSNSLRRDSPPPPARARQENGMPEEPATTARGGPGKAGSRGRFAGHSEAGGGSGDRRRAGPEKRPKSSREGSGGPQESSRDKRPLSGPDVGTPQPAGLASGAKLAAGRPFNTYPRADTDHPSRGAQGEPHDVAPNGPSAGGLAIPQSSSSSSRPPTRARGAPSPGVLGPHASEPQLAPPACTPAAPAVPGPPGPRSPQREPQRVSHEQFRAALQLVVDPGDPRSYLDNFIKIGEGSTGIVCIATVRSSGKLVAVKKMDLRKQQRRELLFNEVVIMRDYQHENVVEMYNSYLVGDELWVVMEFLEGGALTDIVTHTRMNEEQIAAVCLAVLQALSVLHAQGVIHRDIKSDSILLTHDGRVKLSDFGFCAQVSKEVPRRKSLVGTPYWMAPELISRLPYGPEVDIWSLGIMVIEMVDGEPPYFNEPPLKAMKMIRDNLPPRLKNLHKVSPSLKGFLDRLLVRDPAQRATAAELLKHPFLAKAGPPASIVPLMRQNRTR
An outline of the steps: as §1

T1 sequence (P06493 whole entry): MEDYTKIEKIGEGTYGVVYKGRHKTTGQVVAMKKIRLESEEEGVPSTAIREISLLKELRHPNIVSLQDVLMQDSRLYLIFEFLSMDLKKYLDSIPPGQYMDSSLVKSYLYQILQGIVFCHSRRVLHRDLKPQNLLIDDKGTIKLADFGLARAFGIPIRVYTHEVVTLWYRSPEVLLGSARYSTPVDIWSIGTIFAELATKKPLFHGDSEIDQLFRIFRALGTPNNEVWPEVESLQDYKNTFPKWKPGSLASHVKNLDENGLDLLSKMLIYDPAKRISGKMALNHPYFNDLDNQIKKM
T1 sequence (P14635 whole entry partner): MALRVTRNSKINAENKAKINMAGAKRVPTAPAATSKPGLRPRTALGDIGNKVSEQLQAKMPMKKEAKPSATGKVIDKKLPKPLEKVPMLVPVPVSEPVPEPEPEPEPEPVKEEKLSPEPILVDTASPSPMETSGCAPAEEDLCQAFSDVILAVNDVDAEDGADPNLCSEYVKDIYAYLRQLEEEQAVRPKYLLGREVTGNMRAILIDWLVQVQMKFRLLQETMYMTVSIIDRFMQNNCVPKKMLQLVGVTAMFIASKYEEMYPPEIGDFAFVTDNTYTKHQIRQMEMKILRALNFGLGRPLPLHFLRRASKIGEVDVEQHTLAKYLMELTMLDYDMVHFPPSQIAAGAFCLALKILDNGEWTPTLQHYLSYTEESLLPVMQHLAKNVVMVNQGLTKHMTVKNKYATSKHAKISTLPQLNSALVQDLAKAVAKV

For `Cc1ncc(-c2nc(Nc3ccc(C(=O)NCCN4CCCCC4)cc3)ncc2F)n1C(C)C` [Compound 3], the inhibition at 10 µM against CDK1/cyclin B came out at 96%; at AXL, 95%; against LTK (TYK1), 73%; at CLK1, 101%; on NEK4, 23%; on IKBKB (IKK beta), 33%. In addition, the inhibition at 10 µM against MAPK11 (p38 beta) was determined as 22%; against PRKD2 (PKD2), 95%; at PAK4, 81%.

With `Cc1cc(Nc2nc(N)nn2C(=O)NC(C)C)ccc1Cl` [Compound 5], the inhibition at 10 µM worked out at 56% at CDK1/cyclin B; 18% against AXL; 18% on LTK (TYK1); 10% on CLK1; 17% against NEK4; 3.42% at IKBKB (IKK beta). In addition, the inhibition at 10 µM was 4.21% against MAPK11 (p38 beta), 9% at PRKD2 (PKD2) and 41% at PAK4.

For “XMD8-92 [Compound 2, reference compound]”, the “CDK1/cyclin B % Inhibition” value at CDK1/cyclin B (10 µM compound, ATP Km app) was found to be 8.43%. Further, at AXL (10 µM compound, ATP Km app), the “AXL % Inhibition” value is listed as 3%. For the same molecule, the “LTK (TYK1) % Inhibition” value at LTK (TYK1) (10 µM compound, ATP Km app) is 24%. In addition, the “CLK1 % Inhibition” value at CLK1 (10 µM compound, ATP Km app) worked out at 6%. For the same molecule, the “NEK4 % Inhibition” value at NEK4 (10 µM compound, ATP Km app) came out at 2.63%. Further, at IKBKB (IKK beta) (10 µM compound, ATP Km app), the “IKBKB (IKK beta) % Inhibition” value is 44%. Further, at MAPK11 (p38 beta) (10 µM compound, ATP Km app), the “MAPK11 (p38 beta) % Inhibition” value amounted to 10%. Moreover, the “PRKD2 (PKD2) % Inhibition” value on PRKD2 (PKD2) (10 µM compound, ATP Km app) stood at 21%. At PAK4 (10 µM compound, ATP Km app), the “PAK4 % Inhibition” value amounted to 26%.
